Data from ChEMBL document CHEMBL1135895, “Stereochemistry at phosphorus of the reaction catalyzed by myo-inositol monophosphatase” (J Med Chem, 2002).
pKi: −log10 of the molar value.

Key:
[1] = IMPase-catalyzed hydrolysis at pH 9.00 at 25 degrees Centigrade.; type: ADME; conditions: for Km / k cat: buffer
[2] = Oxidation catalyzed by inositol dehydrogenase at pH 9.13.; type: ADME

For `O=P(O)(O)OC1C(O)C(O)C(O)C(O)C1O` (stereo not drawn), the Km [1] was 110 µM and the k cat [1] was 0.48 s⁻¹.

Molecule `OC1C(O)C(O)C(OP(O)(O)=S)C(O)C1O` (stereo not drawn) has a pKi [1] of 2.94, a Km [1] of 2070 µM and a k cat [1] of 0.185 s⁻¹.

In the case of `O[C@H]1[C@H](O)[C@@H](O)[C@H](O)[C@@H](O)[C@H]1O` [INOSITOL], the Km [2] was 580 µM, the k cat [2] was 13.3 s⁻¹ and the “k cat/Km” value [2] was 23100 M⁻¹ s⁻¹.
